# Source: ChEMBL document CHEMBL3046872, “Management of Macrophomina wilt in melons using grafting or fungicide soil application: Pathological, horticultural and economical aspects” (2012)
# Experiments:
# Format in all cases: functional
# Macrophomina phaseolina [1] = assay: (§1) Fungicidal activity against Macrophomina phaseolina in non-grafted Melon plants cv. 6405 plots assessed as disease incidence exposed to compound at 250 ml/1000 m2 of commercial product applied as soil drench three times during growing season (reference value: 65%)
# Macrophomina phaseolina [2] = assay: Fungicidal activity against Macrophomina phaseolina assessed as mycelial growth inhibition incubated at 27 degC for 5 days; conditions: 120 h
# Macrophomina phaseolina [3] = assay: Fungicidal activity against Macrophomina phaseolina in non-grafted Melon plants cv. 6405 plots assessed as disease incidence exposed to compound at 350 ml/1000 m2 of commercial product applied as soil drench three times during growing season (reference value: 65%)
# Macrophomina phaseolina [4] = assay: as §1, with “plots infested with Macrophomina phaseolina” for “plots”, “to crown zone 2” for “three”, “season 44 to 56 days after seeding” for “season”, “45%)” for “65%)”
# Macrophomina phaseolina [5] = assay: Fungicidal activity against Macrophomina phaseolina in non-grafted Melon plants cv. 6405 plots assessed as disease incidence exposed to compound at 200 ml/1000 m2 of commercial product applied as soil drench three times during growing season (reference value: 65%)
# Macrophomina phaseolina [6] = assay: as §1, with “plots infested with Macrophomina phaseolina” for “plots”, “drench to crown zone” for “drench”, “season 21 to 49 days after transplanting” for “season”, “23%)” for “65%)”
# Macrophomina phaseolina [7] = assay: as §1, with “plots infested with Macrophomina phaseolina” for “plots”, “to crown zone 1 time” for “three times”, “season 44 to 56 days after seeding” for “season”, “45%)” for “65%)”
# Macrophomina phaseolina [8] = assay: Fungicidal activity against Macrophomina phaseolina in non-grafted Melon plants cv. 6405 plots assessed as disease incidence exposed to compound at 300 ml/1000 m2 of commercial product applied as soil drench three times during growing season (reference value: 65%)
# Macrophomina phaseolina [9] = assay: as §1, with “plots infested with Macrophomina phaseolina” for “plots”, “40” for “250”, “drench to crown zone” for “drench”, “season 21 to 49 days after transplanting” for “season”, “23%)” for “65%)”
# Macrophomina phaseolina [10] = assay: as §1, with “plots infested with Macrophomina phaseolina” for “plots”, “40” for “250”, “to crown zone 2” for “three”, “season 44 to 56 days after seeding” for “season”, “45%)” for “65%)”
# Macrophomina phaseolina [11] = assay: Fungicidal activity against Macrophomina phaseolina in non-grafted Melon plants cv. 6405 plots assessed as disease incidence exposed to compound at 100 ml/1000 m2 of commercial product applied as soil drench three times during growing season (reference value: 65%)
smiles,measurement,setting,value
O=CNC(N1CCN(C(NC=O)C(Cl)(Cl)Cl)CC1)C(Cl)(Cl)Cl (configuration not stated) [TRIFORINE],Activity,Macrophomina phaseolina [1],25%
same,ED50,Macrophomina phaseolina [2],1 mg/kg
CCCOC(=O)NCCCN(C)C.Cl [PROPAMOCARB HYDROCHLORIDE],Activity,Macrophomina phaseolina [3],30%
same,ED50,Macrophomina phaseolina [2],0.9 mg/kg
CO/C=C(/C(=O)OC)c1ccccc1Oc1cc(Oc2ccccc2C#N)ncn1 [AZOXYSTROBIN],Activity,Macrophomina phaseolina [4],5%
same,Activity,Macrophomina phaseolina [5],5%
same,ED50,Macrophomina phaseolina [2],0.38 mg/kg
same,Activity,Macrophomina phaseolina [6],3%
same,Activity,Macrophomina phaseolina [7],15%
N#Cc1c(Cl)c(Cl)c(Cl)c(C#N)c1Cl [CHLOROTHALONIL],ED50,Macrophomina phaseolina [2],0.61 mg/kg
COCC(=O)N(c1c(C)cccc1C)[C@H](C)C(=O)OC [MEFENOXAM],Activity,Macrophomina phaseolina [8],10%
same,Activity,Macrophomina phaseolina [9],10%
same,ED50,Macrophomina phaseolina [2],> 10 mg/kg
same,Activity,Macrophomina phaseolina [10],50%
CCCN(CCOc1c(Cl)cc(Cl)cc1Cl)C(=O)n1ccnc1 [PROCHLORAZ],Activity,Macrophomina phaseolina [1],35%
same,ED50,Macrophomina phaseolina [2],0.04 mg/kg
FC(F)C(F)(F)OCC(Cn1cncn1)c1ccc(Cl)cc1Cl (configuration not stated) [TETRACONAZOLE],Activity,Macrophomina phaseolina [8],15%
same,ED50,Macrophomina phaseolina [2],2.96 mg/kg
OC(Cn1cncn1)(c1ccc(F)cc1)c1ccccc1F (configuration not stated) [FLUTRIAFOL],Activity,Macrophomina phaseolina [1],50%
same,ED50,Macrophomina phaseolina [2],13.1 mg/kg
O=[N+]([O-])c1cc(C(F)(F)F)c(Cl)c([N+](=O)[O-])c1Nc1ncc(C(F)(F)F)cc1Cl [FLUAZINAM],ED50,Macrophomina phaseolina [2],< 0.01 mg/kg
O=C(Cc1ccccc1)N/C(=N\OCC1CC1)c1c(C(F)(F)F)ccc(F)c1F [CYFLUFENAMID],Activity,Macrophomina phaseolina [11],60%
same,ED50,Macrophomina phaseolina [2],< 0.01 mg/kg
CCCCC(C#N)(Cn1cncn1)c1ccc(Cl)cc1 (configuration not stated) [MYCLOBUTANIL],Activity,Macrophomina phaseolina [5],45%
same,ED50,Macrophomina phaseolina [2],0.26 mg/kg
CC(C)NC(=O)N1CC(=O)N(c2cc(Cl)cc(Cl)c2)C1=O [IPRODIONE],Activity,Macrophomina phaseolina [5],35%
same,ED50,Macrophomina phaseolina [2],0.03 mg/kg
